Source: publication PMC13185819, “De Novo Multi‐Mechanism Antimicrobial Peptide Design via Multimodal Deep Learning” (Advanced Science, 2026)
Values after ≈ are worked out from the molar mass of the structure shown. Residues, ends and D or L forms follow the SMILES beside them.

What was measured:
Type in all cases: cell-based
E. faecium 1042 = system: E. faecium 1042
Protocol: (§1) Standard strains included S. aureus ATCC33592, S. aureus CICC25138, and Salmonella enterica ATCC14028, which were purchased from the China Center of Industrial Culture Collection (CICC). Standard strains including E.coli CMCC44102, Salmonella enterica CMCC50071, and S. aureus CMCC26003 were purchased from the National Center for Medical Culture Collections (CMCC). […] All experiments using the above strains were carried out in a BSL‐2 laboratory. The clinical laboratory of Qilu Hospital detected bacterial resistance to various antibiotics. All strains were streaked on Nutrient Broth (NB) agar medium and incubated overnight at 37°C.
(§2) The antimicrobial activity of the peptides was examined in sterile 96‐well plates using the broth microdilution according to the CLSI standard. The colonies were suspended in saline solution, the turbidity was adjusted to McFarland 0.5 to reach a bacterial concentration of 10^8 CFU/mL, and again diluted 100 times for the inhibition test. Then, 50 µL of bacterial suspension at 1 × 10^6 CFU/mL was incubated with the same volume of different concentrations of peptide solution [serial twofold dilutions in Mueller–Hinton Broth (Hopebio)]. […] All experiments were performed with three independent replicates.

E. faecium 21 = system: E. faecium 21
Protocol: as §1, §2

E.coli 110 = system: E.coli 110
Protocol: as §1, §2

E.coli 208 = system: E.coli 208
Protocol: as §1, §2

K. pneumoniae 7713 = system: K. pneumoniae 7713
Protocol: as §1, §2

P. aeruginosa 112 = system: P. aeruginosa 112
Protocol: as §1, §2

P. aeruginosa 116 = system: P. aeruginosa 116
Protocol: as §1, §2

P. aeruginosa 119 = system: P. aeruginosa 119
Protocol: as §1, §2

S. aureus 103 = system: S. aureus 103
Protocol: as §1, §2

S. aureus 129 = system: S. aureus 129
Protocol: as §1, §2

S. aureus ATCC33592 = system: S. aureus ATCC33592
Protocol: as §1, §2

S. aureus CICC25138 = system: S. aureus CICC25138
Protocol: as §1, §2

E.coli CMCC44102 = system: E.coli CMCC44102
Protocol: as §1, §2

S. aureus CMCC26003 = system: S. aureus CMCC26003
Protocol: as §1, §2

Structure (SMILES) | MIC (μg/mL) E. faecium 1042 (E. faecium 1042) | MIC (μg/mL) E. faecium 21 (E. faecium 21) | MIC (μg/mL) E.coli 110 (E.coli 110) | MIC (μg/mL) E.coli 208 (E.coli 208) | MIC (μg/mL) K. pneumoniae 7713 (K. pneumoniae 7713) | MIC (μg/mL) P. aeruginosa 112 (P. aeruginosa 112) | MIC (μg/mL) P. aeruginosa 116 (P. aeruginosa 116) | MIC (μg/mL) P. aeruginosa 119 (P. aeruginosa 119) | MIC (μg/mL) S. aureus 103 (S. aureus 103) | MIC (μg/mL) S. aureus 129 (S. aureus 129) | MIC (μg/mL) S. aureus ATCC33592 (S. aureus ATCC33592) | MIC (μg/mL) S. aureus CICC25138 (S. aureus CICC25138) | MIC (μg/mL) E.coli CMCC44102 (E.coli CMCC44102) | MIC (μg/mL) S. aureus CMCC26003 (S. aureus CMCC26003)
CC[C@H](C)[C@H](NC(=O)[C@H](CCCCN)NC(=O)[C@H](Cc1c[nH]c2ccccc12)NC(=O)[C@@H](N)CCCCN)C(=O)N[C@@H](CCCCN)C(=O)N[C@@H](Cc1c[nH]c2ccccc12)C(=O)N[C@@H](Cc1c[nH]cn1)C(=O)N[C@H](C(=O)N[C@@H](CCCNC(=N)N)C(=O)N[C@@H](Cc1c[nH]c2ccccc12)C(=O)N[C@@H](Cc1ccccc1)C(=O)N[C@@H](CCCNC(=N)N)C(=O)N[C@H](C(=O)N[C@@H](CC(C)C)C(N)=O)C(C)C)C(C)C [QLX-3DV-10] (H-KWKIKWHVRWFRVL-NH2) | 8 µg/mL (≈ 4.04 µM) | 8 µg/mL (≈ 4.04 µM) | 32 µg/mL (≈ 16.1 µM) | 32 µg/mL (≈ 16.1 µM) | 16 µg/mL (≈ 8.07 µM) | 32 µg/mL (≈ 16.1 µM) | 8 µg/mL (≈ 4.04 µM) | 64 µg/mL (≈ 32.3 µM) | 8 µg/mL (≈ 4.04 µM) | 16 µg/mL (≈ 8.07 µM) | 16 µg/mL (≈ 8.07 µM) | 32 µg/mL (≈ 16.1 µM) | – | –
CC[C@H](C)[C@H](NC(=O)[C@H](CCCNC(=N)N)NC(=O)[C@H](Cc1c[nH]c2ccccc12)NC(=O)[C@H](CCCCN)NC(=O)[C@H](CCC(N)=O)NC(=O)[C@H](CCCNC(=N)N)NC(=O)[C@@H](N)CCCNC(=N)N)C(=O)N[C@@H](CC(C)C)C(=O)N[C@@H](C)C(=O)N[C@@H](CC(C)C)C(=O)N[C@@H](CC(N)=O)C(=O)N[C@H](C(=O)N[C@@H](Cc1c[nH]c2ccccc12)C(=O)N[C@@H](CCCCN)C(N)=O)[C@@H](C)CC [QLX-3DV-11] (H-RRQKWRILALNIWK-NH2) | 4 µg/mL (≈ 2.13 µM) | 4 µg/mL (≈ 2.13 µM) | 4 µg/mL (≈ 2.13 µM) | 8 µg/mL (≈ 4.25 µM) | 8 µg/mL (≈ 4.25 µM) | 4 µg/mL (≈ 2.13 µM) | 32 µg/mL (≈ 17 µM) | 32 µg/mL (≈ 17 µM) | 16 µg/mL (≈ 8.51 µM) | 4 µg/mL (≈ 2.13 µM) | 8 µg/mL (≈ 4.25 µM) | 16 µg/mL (≈ 8.51 µM) | 4 µg/mL (≈ 2.13 µM) | 2 µg/mL (≈ 1.06 µM)
CC(C)[C@H](N)C(=O)N[C@@H](CCCCN)C(=O)N[C@H](C(=O)N[C@@H](Cc1ccccc1)C(=O)N[C@@H](CCCNC(=N)N)C(=O)N[C@@H](Cc1ccccc1)C(=O)N[C@@H](Cc1ccc(O)cc1)C(=O)N[C@@H](Cc1c[nH]c2ccccc12)C(=O)N[C@@H](CCCCN)C(=O)N[C@@H](CCCNC(=N)N)C(=O)N[C@@H](CCCCN)C(=O)N[C@@H](CCC(N)=O)C(=O)N[C@@H](CCCNC(=N)N)C(=O)N[C@@H](Cc1ccccc1)C(N)=O)C(C)C [QLX-3DV-12] (H-VKVFRFYWKRKQRF-NH2) | 2 µg/mL (≈ 1.01 µM) | 4 µg/mL (≈ 2.01 µM) | 4 µg/mL (≈ 2.01 µM) | 8 µg/mL (≈ 4.03 µM) | 16 µg/mL (≈ 8.05 µM) | 2 µg/mL (≈ 1.01 µM) | 8 µg/mL (≈ 4.03 µM) | 32 µg/mL (≈ 16.1 µM) | 16 µg/mL (≈ 8.05 µM) | 16 µg/mL (≈ 8.05 µM) | 32 µg/mL (≈ 16.1 µM) | 32 µg/mL (≈ 16.1 µM) | 8 µg/mL (≈ 4.03 µM) | 2 µg/mL (≈ 1.01 µM)
CC(C)C[C@H](NC(=O)[C@H](Cc1ccccc1)NC(=O)[C@H](CCCCN)NC(=O)[C@H](Cc1c[nH]c2ccccc12)NC(=O)[C@H](Cc1c[nH]c2ccccc12)NC(=O)[C@@H]1CCCN1C(=O)[C@H](CCCNC(=N)N)NC(=O)[C@@H](NC(=O)[C@H](Cc1ccccc1)NC(=O)[C@H](CCCCN)NC(=O)[C@H](CCCNC(=N)N)NC(=O)[C@H](Cc1c[nH]c2ccccc12)NC(=O)[C@H](CCCNC(=N)N)NC(=O)[C@H](CCCCN)NC(=O)[C@H](Cc1ccc(O)cc1)NC(=O)[C@H](CCC(N)=O)NC(=O)[C@@H](N)CCCNC(=N)N)C(C)C)C(=O)N[C@@H](CCCCN)C(=O)N[C@@H](CC(=O)O)C(N)=O [QLX-3DV-14] (H-RQYKRWRKFVRPWWKFLKD-NH2) | – | 8 µg/mL (≈ 2.94 µM) | 8 µg/mL (≈ 2.94 µM) | 16 µg/mL (≈ 5.88 µM) | – | 4 µg/mL (≈ 1.47 µM) | 32 µg/mL (≈ 11.8 µM) | 128 µg/mL (≈ 47 µM) | 8 µg/mL (≈ 2.94 µM) | 16 µg/mL (≈ 5.88 µM) | 8 µg/mL (≈ 2.94 µM) | 32 µg/mL (≈ 11.8 µM) | 4 µg/mL (≈ 1.47 µM) | 8 µg/mL (≈ 2.94 µM)
